The values below are quoted from earlier work in patent publication US12097195B2, “Pharmaceutical composition containing alkynyl compound and preparation method and application thereof” (ASCENTAGE PHARMA (SUZHOU) CO., LTD., priority 2019, dated 2024).

The subject of data set [1] is chronic leukemia K562.
Data set [2] relates to acute leukemia MOLT.

With `Cc1ccc(C(=O)Nc2ccc(CN3CCN(C)CC3)c(C(F)(F)F)c2)cc1C#Cc1cnc2[nH]ncc2c1` [alknyl compound, 3-((1H-pyrazolo[3,4-b]pyridin-5-yl)ethynyl)-4-methyl-N-(4-((4-methylpiperazin-1-yl)methyl)-3-(trifluoromethyl)phenyl)-benzamide], the inhibition rate entry in data set [1] and in data set [2] was “very good inhibition rate” throughout.
